Measurements from ChEMBL document CHEMBL1145708, “Selective cytotoxicity of ginkgetin from Selaginella moellendorffii” (J Nat Prod, 1997).
Converted amounts (≈) assume the structure as drawn. Each block holds one compound with its values, some of them ahead of it. The source made the active and inactive calls. The rule behind the calls is not given here.

Legend:
OVCAR-3 [1] = test: Growth inhibition of human OVCAR-3 cells upto 10 ug/ml after 48 hrs; format: functional, cell-based
HepG2 = test: Growth inhibition of human HepG2 cells; format: functional, cell-based
HeLa = test: Growth inhibition of human HeLa cells; format: functional, cell-based
OVCAR-3 [2] = test: Growth inhibition of human OVCAR-3 cells after 48 hrs; format: functional, cell-based
[3] = Growth inhibition of HEK cells; format: cell-based; conditions: human, hek293

Structure (SMILES): COc1ccc(-c2cc(=O)c3c(O)cc(O)c(-c4cc(-c5cc(=O)c6c(O)cc(O)cc6o5)ccc4O)c3o2)cc1
- Activity (OVCAR-3 [1]): inactive

Structure (SMILES): COc1ccc(-c2cc(=O)c3c(O)cc(OC)c(-c4cc(-c5cc(=O)c6c(O)cc(O)cc6o5)ccc4OC)c3o2)cc1
- Activity (OVCAR-3 [1]): inactive

Structure (SMILES): COc1ccc(-c2cc(=O)c3c(O)cc(OC)c(-c4cc(-c5cc(=O)c6c(O)cc(OC)cc6o5)ccc4OC)c3o2)cc1
- Activity (OVCAR-3 [1]): inactive

Structure (SMILES): O=c1cc(-c2ccc(O)c(-c3c(O)cc(O)c4c(=O)cc(-c5ccc(O)cc5)oc34)c2)oc2cc(O)cc(O)c12
- Activity (OVCAR-3 [1]): inactive

- IC50 (OVCAR-3 [2]; OVCAR-3, 48 h): 1.8 µg/mL (≈ 3.18 µM)
Structure (SMILES): COc1cc(O)c2c(=O)cc(-c3ccc(OC)c(-c4c(O)cc(O)c5c(=O)cc(-c6ccc(O)cc6)oc45)c3)oc2c1 [GINKGETIN]
- Activity (HepG2): inactive
- Activity (HeLa): inactive
- Activity (OVCAR-3 [2]): Dose-dependent effect
- Activity [3]: Not Active
